Reference: patent publication EP0050212A1, “5-Substituted-9-cyane-methylene-dithieno(3,4-b:4',3'-e) azepines, process for their preparation and pharmaceutical compositions containing them” (BASF Aktiengesellschaft, priority 1980, dated 1982)

Columns and labels:
Kaninchens = experiment: Muscle-relaxant effect: tonic stretch reflex of the gastrocnemius; type: in vivo, Kaninchen; details: for ED50: Oryctolagus cuniculus, rabbit, intravenous, tonic stretch reflex impulse counts relative to pre-dose values, read-out: Muskelrelaxation ED50; for Muskelrelaxation R.W.: relative Wirksamkeit = ED50 Vergleichssubstanz / ED50 Beispiel, Clozapin = 1,0
Excerpt: 2. […] auf der Quantifizierung des tonischen Dehnungsreflexes am Gastocnemius des […] et al., Arch. Pharmacol. exp. Path. 266, 462, 1970). Das Kaninchen wird in einer speziellen Apparatur fixiert, die es erlaubt, die Pfote im Sprunggelenk in […] und reproduzierbarer Weise zu beugen. Durch die Beugung wird in der Wadenmuskulatur ein tonischer Dehnungsreflex ausgelöst. Die […] des Muskels während der Kontraktion wird registriert und die Einzelimpulse gezählt. Die Dehnung (Dauer 5 s) wird in Minutenabständen wiederholt. Nach Erreichen einer konstanten Impulszahl (Kontrollwert) wird die Testsubstanz intravenös appliziert. Die Impulszahlen nach Applikation werden auf die Vorwerte bezogen.

NMRI-Mäusen = experiment: Sedative effect: inhibition of novelty-induced orientation hypermotility (photoelectric measurement); type: in vivo; details: for ED50: Mus musculus, 0.5 h, oral, female NMRI mice, measured 30 min after dosing for 30 min, dose giving 50 % decrease of orientation hypermotility, read-out: Sedation ED50; for Sedation R.W.: relative Wirksamkeit = ED50 Vergleichssubstanz / ED50 Beispiel, Clozapin = 1,0
Experimental: 4 bis 8 Gruppen von Jeweils 3 weiblichen NMRI-Mäusen erhalten die Substanzen oral appliziert. Die photoelektrische Bestimmung der durch eine neue Umgebung induzierten Orientierungshypermotilität erfolgt 30 min nach der Applikation der Substanzen für eine Dauer von 30 min. " Als ED50 wird die Dosis bestimmt, welche im Ver- gleich zu Placebo-behandelten Kontrolltieren eine Abnahme der Orientierungshypermotilität um 50 % bewirkt.

Ratten [1] = experiment: Antimethamphetamine effect: suppression of methamphetamine-induced sniffing; type: in vivo; details: for ED50: ip, 0.5 h, rat, intraperitoneal 30 min before Methamphetamin . HCl 2,5 mg/kg i.v., absence of sniffing within 5 min, probit analysis, read-out: Methamphetaminantagonismus ED50; for Methamphetaminantagonismus R.W.: relative Wirksamkeit = ED50 Vergleichssubstanz / ED50 Beispiel, Clozapin = 1,0
Experimental: Antimethamphetamin-Wirkung
Methamphetamin . […] Die Prüfsubstanzen werden 30 min vor Methamphetamin intraperitoneal verabfolgt. Kriterium für einen Substanzeffekt ist das Ausbleiben der Schnüffelbewegungen innerhalb eines 5-minütigen Beobachtungszeitraumes nach Meth- amphetamin-Injektion. Als mittlere Hemmdosis (ED50) ' wird mittels Probitanalyse die Dosis ermittelt, die das Symptom bei der Hälfte der Tiere verhindert.

Ratten [2] = experiment: Central anticholinergic effect: suppression of pilocarpine-induced scratching; type: in vivo; details: for ED50: ip, 0.5 h, rat, intraperitoneal 30 min before Pilocarpin . HCl 50 mg/kg i.v., absence of scratching within 2 min, probit analysis, read-out: Zentral-anticholinerge Wirkung ED50; for Zentral-anticholinerge Wirkung R.W.: relative Wirksamkeit = ED50 Vergleichssubstanz / ED50 Beispiel, Clozapin = 1,0
Experimental: 4. Zentral-anticholinerge Wirkung
Zur Prüfung auf zentrale anticholinerge Wirkung wird durch Pilocarpin eine cholinerge Stimulierung ausgelöst. Ratten zeigen nach rascher intravenöser Injektion von Pilocarpin . HC1 (50 mg/kg) alternierende Kratzbewegungen der Hinterpfoten; weitere zentral ausgelöste Symptome sind Kieferbewegungen und Tremor. ALs Zeichen peripherer übererregung können Speichelfluß und Chromodakryorrhoe beobachtet werden (Kreiskott, Arch. exp. Path. Pharmak. 247, 317, 1964). Die Prüfsubstanzen werden 30 min vor Pilocarpin intraperitoneal verabfolgt. Kriterium für einen Substanzeffekt ist das Ausbleiben des Kratzens innerhalb 2 min nach Pilocarpin-Injektion. Für dieses Symptom wird als mittlere Hemmdosis (ED50) mittels Probitanalyse nach Finney diejenige Dosis der Prüfsubstanz ermittelt, welche die Kratzabläufe bei der Hälfte der Tiere unterdrückt.

Structure (SMILES)	ED50 (Kaninchens) [mg/kg]	Muskelrelaxation R.W. (Kaninchens)	ED50 (NMRI-Mäusen) [mg/kg]	Sedation R.W. (NMRI-Mäusen)	ED50 (Ratten [1]) [mg/kg]	Methamphetaminantagonismus R.W. (Ratten [1])	ED50 (Ratten [2]) [mg/kg]	Zentral-anticholinerge Wirkung R.W. (Ratten [2])
CN1CCN(C2=Nc3c(csc3Cl)C(=CC#N)c3cscc32)CC1 (mixture of isomers) [Beispiel 2, cis, trans-3-Chlor-9-cyanmethyl en-5-(4-methylpiperazin-1--yl)-dithieno[3.4-b:4'.3'-e]azepin]	0.08	0,56	9.6	0,49	–	–	–	–
CCN1CCN(C2=Nc3cscc3C(=CC#N)c3cscc32)CC1 (mixture of isomers) [Beispiel 6, cis, trans-9-Cyanmethylen-5-(4-äthyl-piperazin-1-yl)-di-thieno[3.4-b:4'.3'-elazepin]	0.22	0,21	10.6	0,44	42	0,88	–	–
CN1CCN(C2=Nc3cscc3/C(=C/C#N)c3cscc32)CC1 [1b cis]	0.22	0,21	5	0,94	5.5	6,72	0.6	5,2
CN1CCN(C2=Nc3cscc3/C(=C\C#N)c3cscc32)CC1 [1b trans]	> 1	<0,046	> 21.5	<0,22	77	0,48	13	0,24
CN1CCN(C2=Nc3cscc3C(=CC#N)c3cscc32)CC1 [Beispiel 1a, 9-Cyanmethylen-5-(4-methyl-piperazin-1-yl)-dithieno-[3.4-b:4'.3'-e]azepin]	0.14	0,33	7.4	0,64	5.1	7,25	2.8	1,1
CN1CCN(C2=Nc3cc(Cl)ccc3Nc3ccccc32)CC1 [Clozapin, reference compound]	–	1,0	4.7	1,0	37	1,0	3.1	1,0
CN1CCN(C2=Nc3ccccc3Cc3ccccc32)CC1 [Perlapin, reference compound]	0.11	0,42	2.1	2,24	31	1,2	14	0,22
